Values quoted from earlier work as cited in patent US7820159B2, “MN/CA IX and EGFR pathway inhibition” (Instiute of Virology of the Slovak Academy of Sciences, priority 2006, dated 2010).

Tests used:
[1] = target: T1, MN (Homo sapiens, UniProt Q16790); details: patients
T1 construct: Phase I and II clinical trials of an MN-specific drug, Rencarex®; host or cells: endogenous MN/CA IX in human trial patients

[2] = patients
[3] = tested on: MEK; details: non-ATP competitive allosteric inhibitors, unlike the majority of ATP-competitive analogs
[4] = tested on: tumor xenograft models; details: in vivo
[5] = not given; remark: listed apart in the source

Rencarex®: an MN-specific drug tested in Phase I and II clinical trials
Tolerability in Phase I and II clinical trials [1]: well-tolerated | Drug-related side effects in Phase I and II clinical trials [2]: no serious drug-related side effects

Cn1cnc2c(F)c(Nc3ccc(Br)cc3Cl)c(C(=O)NOCCO)cc21 [ARRY-142886]
Selectivity for MEK in biochemical assays [3]: high selectivity for MEK | Anti-tumor activity in tumor xenograft models [4]: potent anti-tumor activity

O=C(NOC[C@H](O)CO)c1ccc(F)c(F)c1Nc1ccc(I)cc1F [PD-0325901]
Anti-tumor activity in tumor xenograft models [4]: potent anti-tumor activity | Solubility compared with CI-1040: more soluble | Metabolic stability compared with CI-1040 [5]: improved
